# Values of other authors in US20230364135A1, “GUT-SELECTIVE SEQUESTERING AGENTS FOR THE TREATMENT AND PREVENTION OF AUTISM AND RELATED DISORDERS” (Axial Biotherapeutics, Inc., priority 2017, published 2023).
# Test system: naïve, wild-type mice
# Settings: single bolus injection intraperitoneally
structure (smiles),measurement,value
"CCc1ccc(OS(=O)(=O)[O-])cc1.[K+] [4-EPS, 4-ethylphenylsulfate]",core symptoms of autism spectrum disorder,did not engender any core symptoms of autism spectrum disorder
same,symptoms of anxiety,engendered symptoms of anxiety
